This test deals with T1, human CCR5 chemokine receptor (Homo sapiens, UniProt P51681).
T1 construct: expressed in transfected cells; host or cells: NIH 3T3 cells (mouse fibroblasts) expressing human CCR5; membranes prepared from them
As to the kind of experiment: CCR5 membrane binding assay (inhibition of 125I-RANTES binding). The following applies: membranes from NIH 3T3 cells expressing human CCR5; 0.05 nM 125I Rantes; one hour; replicates of four; read-out: IC50, 50 percent inhibition of total membrane binding of 125I Rantes. As to the method: A high throughput screen utilizing a CCR5 membrane binding assay identifies inhibitors of RANTES binding. This assay utilizes membranes prepared from NIH 3T3 cells expressing the human CCR5 chemokine receptor which have the ability to bind to RANTES, a natural ligand for the receptor. Using a 96-well plate format, membrane preparations are incubated with ^125I-RANTES in the presence or absence of compound for one hour. Compounds are serially diluted over a wide range of 0.001 ug/ml to 1 ug/ml and tested in triplicates. Reaction cocktails are harvested through glass fiber filters, and washed thoroughly. Total counts for replicates are averaged and data reported as the concentration required to inhibit 50 percent of total ^125I-RANTES binding. Compounds with potent activity in the membrane binding assay are further characterized in secondary cell-based HIV-1 entry and replication assays.
The activity of the compound of formula II was evaluated in the CCR5 membrane binding assay. The assay utilizes membranes prepared from NIH 3T3 cells which express human CCR5 chemokine receptor. RANTES (Regulated upon Activation, Normal T cell Expressed and Secreted) is a natural ligand for the CCR5. […] Total counts for replicates are averaged and 50 percent inhibition of total membrane binding of ^125I Rantes is determined.

T1 sequence (P51681 whole entry): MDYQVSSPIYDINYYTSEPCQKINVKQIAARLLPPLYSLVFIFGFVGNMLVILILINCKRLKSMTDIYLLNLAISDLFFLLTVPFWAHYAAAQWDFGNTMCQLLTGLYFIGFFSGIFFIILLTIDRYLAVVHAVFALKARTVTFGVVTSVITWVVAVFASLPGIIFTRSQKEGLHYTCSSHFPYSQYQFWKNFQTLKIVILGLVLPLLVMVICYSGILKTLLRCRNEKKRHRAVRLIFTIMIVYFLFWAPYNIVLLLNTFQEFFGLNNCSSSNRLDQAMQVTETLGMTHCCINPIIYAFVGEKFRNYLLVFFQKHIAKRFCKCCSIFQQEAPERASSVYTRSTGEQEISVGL

Usually IC50 stands for the point on the concentration scale where inhibition reaches its midpoint. Regarding `C/C=C(\C)[C@@H]1C=C[C@@H]2C[C@H](C)C[C@H](C)[C@H]2[C@@H]1/C(O)=C1/C(=O)N[C@H](C[C@@](C)(O)C(=O)O)C1=O` [Compound II], the IC50 was determined as 78.6 nM.

For the origin of these results see patent US6476062B2, “Chemokine receptor antagonists” (Schering Corporation, priority 2000, dated 2002).
